Values of other authors as cited in publication PMC9063988 (JACS Au, 2022).

Tested on: uptake of ETP transporter 21 into HeLa Kyoto cells

O[C@H](CS)[C@@H](O)CS [DTE, 1,4-Dithioerythritol]
inhibition of thiol-mediated uptake: fail to inhibit
